The values that follow come from patent publication US12459951B2, “Compounds that interact with RAS superfamily proteins for treatment of cancers, inflammatory diseases, rasopathies, and fibrotic disease” (SHY Therapeutics, LLC, priority 2022, dated 2025).

One experiment relates to MAPK p38 phosphorylation. Nature of the experiment: MAPK p38 Activation Assay (western blot), Panc-1. Type of experiment: cell-based, human. Particulars: at 10 μM, Panc-1 pancreatic cancer cell line; starred symbols = activation. As for the experimental part:
Protocol for MAPK p38 Activation Assay
This assay is referred to as the “MAPK p38 Activation Assay” throughout this application.
Cell lines: Human tumor-derived pancreatic cancer cell line Panc-1 (expressing KRas G12D mutant) was purchased from American Type Culture Collection and grown in complete DMEM-High Glucose medium, supplemented with penicillin (100 U/mL), streptomycin (100 μg/mL), and 10% heat-inactivated FBS at 37° C. in a humidified incubator with 5% CO2.
Method 1: Cells were plated at 350000 cells/well density in a 12-well plate, allowed 3 hours to adhere to the plate, then starved in the appropriate medium in the presence of 0.5% FBS overnight. The small molecules to be tested were added to the cells in the final concentration of 10 μM in the presence of 0.3% DMSO for 6 hours incubation at 37° C. For IC50 value determination, serial dilutions of compounds were added to cells under the same conditions. Next, cells were stimulated with 1.5 ng/ml EGF for 15 minutes then cells were lysed with lysis buffer containing 1% Triton X-100, EDTA, and Halt™ Protease & Phosphatase Inhibitor Cocktail (Thermo Scientific). Protein concentration was assessed by BCA protein assay (Thermo Scientific). Phosphorylation level of MAPK p38 was determined by western blot.
Method 2: Cells were plated at 350000 cells/well density in a 12-well plate in 10% FBS. The next day small molecules to be tested were added to the cells in the final concentration of 10 μM in the presence of 0.3% DMSO for 6 hours incubation at 37° C. For IC50 value determination, serial dilutions of compounds were added to cells under the same conditions. Next, cells were lysed with lysis buffer containing 1% Triton X-100, EDTA, and Halt™ Protease & Phosphatase Inhibitor Cocktail (Thermo Scientific). Protein concentration was assessed by BCA protein assay (Thermo Scientific). Phosphorylation level of MAPK p38 was determined by western blot.
Western blot protocol: Equal amounts of protein (15-50 μg) were separated by SDS-PAGE and transferred to nitrocellulose membranes (Invitrogen by Thermo Fisher Scientific). The membrane was stained with Ponceau S Stain (Boston BioProducts) to verify uniform protein loading. Membranes were blocked with 10% milk and phosphorylation levels of MAPK p38 were assessed by incubating overnight at 4° C. with the following antibody: Phospho-p38 MAPK (Thr180/Tyr182), from Cell Signaling Technology. Then the membranes were incubated with HRP-conjugated secondary antibody (Jackson Immunoresearch, West Grove, PA). Bands were incubated in Amersham ECL Prime Western Blotting Detection Reagent (GE Healthcare) and visualized using the ChemiDoc MP imaging system (Bio-Rad).

The test system of experiment [1] is HCC-1806 (expressing wild type KRas). Put plainly: Proliferation Assay (Cell Viability Assay). In kind it is cell-based. Particulars: Homo sapiens, HCC1806; HCC-1806, Breast (TNBC), KRas WT. The method, then: (§1) Cell lines: these Human tumor-derived cell lines were purchased from American Type Culture Collection. Human tumor-derived pancreatic cancer cell line MiaPaca-2 (expressing KRAS G12C mutant) and Panc-1 (expressing KRas G12D mutant), and Human non-small cell lung cancer (NSCLC) cell line A549 (expressing KRas G12S mutant), and Human melanoma cell line A375 (wild type Kras) were grown in complete DMEM-High Glucose medium. Human tumor-derived pancreatic cancer cell lines SU86.86 (expressing KRas G12D mutant), BxPC3 (expressing wild type K-Ras), and Human non-small cell lung cancer (NSCLC) cell lines NCI-H441 (expressing KRas G12S mutant), NCI-H1975 (expressing wild type KRas), NCI-H358 (expressing KRas G12C mutant), NCI-H1299 (expressing NRas Q61H mutant), and Human colon cancer cell line SW-620 (expressing KRas G12V mutant), Human triple negative breast cancer cell line HCC-1806 (expressing wild type KRas), and Human tumor-derived multiple myeloma cell line MM.1R (expressing wild type KRAS), were grown in RPMI 1640 medium. Human tumor-derived breast cancer cell line BT-549 (expressing wild type KRAS) was grown in RPMI 1640 medium in the presence of 11.8U insulin. Human tumor-derived pancreatic cancer cell line HPAF-II (expressing KRas G12D mutant), Human triple negative breast cancer cell line BT-20 (expressing wild type KRas), and Human colon cancer cell line LS123 (expressing KRas G12S mutant), were grown in EMEM medium. Human tumor-derived pancreatic cancer cell line CF-PAC1 (expressing KRas G12V mutant) was frown in IMDM medium, and Human colon cancer cell line HT29 (expressing wild type KRas) was grown in McCoy's 5A medium. The colon cancer cell line GP2d (expressing KRas G12D mutant) was purchased from MilliporeSigma and grown in DMEM-High Glucose medium. All cell lines were supplemented with penicillin (100 U/mL), streptomycin (100 μg/mL), and 10% heat-inactivated FBS at 37° C. in a humidified incubator with 5% CO2.
(§2) Method: Cells were plated at 2000 to 5000 cells/well density in 96-wells plate and cultured overnight. Small molecules that were tested were added to the cells in the final concentration of 10 μM in the presence of 0.3% DMSO and 10% FBS, and incubated for 2-4 days at 37° C. in a humidified incubator with 5% CO2. For IC50 value determination, serial dilutions of compounds were added to cells under the same conditions.
(§3) Assay: At the end of the incubation period, cell viability was determined using the CellTiter 96® Aqueous One Solution Cell Proliferation Assay according to manufacturer specifications (Promega, Madison, WI). The percentage of small molecules inhibition of cellular proliferation was calculated from raw data.

For experiment [2], the system named is BT-20 (expressing wild type KRas). Nature of the experiment: Proliferation Assay (Cell Viability Assay). In kind it is cell-based. Particulars: Homo sapiens; BT-20, Breast (TNBC), KRas WT. As for the experimental part:
as §1, §2, §3

The test system of experiment [3] is HPAF-II (expressing KRas G12D mutant). Nature of the experiment: Proliferation Assay (Cell Viability Assay). Type of experiment: cell-based. Particulars: Homo sapiens, pancreatic. As for the experimental part: as §1, §2, §3
Experiment [4] has as its system NCI-H1299 (expressing NRas Q61H mutant). Nature of the experiment: Proliferation Assay (Cell Viability Assay). Type of experiment: cell-based. Particulars: Homo sapiens; NCI-H1299, NSCLC, Q61H (N-Ras). As for the experimental part: as §1, §2, §3
Experiment [5] has as its system CF-PAC1 (expressing KRas G12V mutant). Put plainly: Proliferation Assay (Cell Viability Assay). In kind it is cell-based. Particulars: Homo sapiens, CFPAC-1, CF-PAC1, pancreatic. The method, then: as §1, §2, §3
The test system of experiment [6] is NCI-H441 (expressing KRas G12S mutant). Put plainly: Proliferation Assay (Cell Viability Assay). In kind it is cell-based. Particulars: Homo sapiens, NCI-H441, NSCLC. The method, then: as §1, §2, §3
For experiment [7], the system named is SU86.86 (expressing KRas G12D mutant). Put plainly: Proliferation Assay (Cell Viability Assay). In kind it is cell-based. Particulars: Homo sapiens, SU.86.86, SU86.86, pancreatic. As for the experimental part:
as §1, §2, §3

Experiment [8] concerns HT29 (expressing wild type KRas). Nature of the experiment: Proliferation Assay (Cell Viability Assay). Type of experiment: cell-based. Particulars: Homo sapiens, HT-29; HT29, colon, KRas WT. As for the experimental part: as §1, §2, §3

Where only a bound is given, the exact number is not on record here.

Take `Cc1c(-c2ccn(C(C)C)n2)cn2nc(-c3ccccn3)nc(O)c12` [Compound 8, 6-(1-Isopropyl-1H-pyrazol-3-yl)-5-methyl-2-(pyridin-2-yl)pyrrolo[2,1-f][1,2,4]triazin-4-ol]: in the experiment with MAPK p38 phosphorylation, the “% inh of MAPK p38 in Panc-1” value is listed as “H* (H* ≥ 100% activation)”.

As for `COc1cc(Nc2nc(-c3nccn3C)nn3cc(-c4ccn(C(C)C)n4)c(C)c23)ncn1` [Compound 6, 6-(1-Isopropyl-1H-pyrazol-3-yl)-N-(6-methoxypyrimidin-4-yl)-5-methyl-2-(1-methyl-1H-imidazol-2-yl)pyrrolo[2,1-f][1,2,4]triazin-4-amine], the “% inh of MAPK p38 in Panc-1” value with MAPK p38 phosphorylation is on record as “E* (E* = 1-30% activation)”. For the same molecule, the IC50 in experiment [1] is 510 to 1000 nM; in experiment [2] it was less than 150 nM; in experiment [3], less than 150 nM; in [4] it was less than 150 nM; in [5], less than 150 nM; in experiment [6] it was 510 to 1000 nM. The IC50 in [7] is 150 to 500 nM; in experiment [8], less than 150 nM.

Take `CO[C@H]1CC[C@@H](Nc2nc(-c3ccccn3)nn3cc(-c4ccn(C(C)C)n4)c(C)c23)C1` (racemic) [Compound 9, rac 6-(1-Isopropyl-1H-pyrazol-3-yl)-N-((1R,3S)-3-methoxycyclopentyl)-5-methyl-2-(pyridin-2-yl)pyrrolo[2,1-f][1,2,4]triazin-4-amine]: in the experiment on MAPK p38 phosphorylation, the “% inh of MAPK p38 in Panc-1” value was “G* (G* = 75-99% activation)”.

With `Cc1c(-c2ccn(C(C)C)n2)cn2nc(-c3nccn3C)nc(Nc3nccn3C)c12` [Compound 93, 6-(1-Isopropyl-1H-pyrazol-3-yl)-5-methyl-N,2-bis(1-methyl-1H-imidazol-2-yl)pyrrolo[2,1-f][1,2,4]triazin-4-amine], the “% inh of MAPK p38 in Panc-1” value with MAPK p38 phosphorylation is reported as “H* (H* ≥ 100% activation)”.
